Data as given in patent EP0209237A2, “Vinyl-glycyl-amino-beta-lactam derivatives” (BEECHAM GROUP PLC, priority 1985, dated 1987).
Values after ≈ are worked out from the molar mass of the structure shown. Read-outs that look alike come from different tables or passages of the source.

Legend:
[1] = Squirrel monkey plasma levels; format: in vivo; settings: for concentration at 0.25 h: 15 minutes, read-out: Plasma Levels, Time in Minutes 15; for concentration at 0.5 h: 30 minutes, read-out: Plasma Levels, Time in Minutes 30; for concentration at 1 h: 60 minutes, read-out: Plasma Levels, Time in Minutes 60; for concentration at 2 h: 120 minutes, read-out: Plasma Levels, Time in Minutes 120; for concentration at 4 h: 240 minutes, read-out: Plasma Levels, Time in Minutes 240; for concentration at 6 h: 360 minutes, read-out: Plasma Levels, Time in Minutes 360; for AUC: read-out: Area under the curve
S.pyogenes CN 10 = experiment: Minimum Inhibitory Concentration (MIC), agar dilution; format: cell-based; settings: 5% v/v horse blood agar, two-fold dilutions, read after 24 hours; unit assumed
Experimental: (§1) The following Table gives Minimum Inhibitory Concentration (MIC) values for some of the compounds of the invention against S.pyogenes CN 10 and E.coli NCTC 10418. The E. coli was grown in tryptone soya broth and the S. pyogenes was grown in Todd Hewitt broth. The microorganisms were grown for 24hours and lul samples were then inoculated on to agar plates (comprising 5% v/v live horse blood agar) to which had been added the compounds of the invention at a series of two-fold dilutions.

E.coli NCTC 10418 = experiment: as above; format: cell-based; settings: 5% v/v horse blood agar, two-fold dilutions, read after 24 hours; unit assumed
Experimental: as §1

S.aureus Smith [2] = experiment: MIC against the infecting strain (Table 4); format: cell-based; settings: Staphylococcus aureus
S.agalactiae 2798 [3] = experiment: MIC against the infecting strain (Table 4); format: cell-based; settings: Streptococcus agalactiae
E.coli 96 R- [4] = experiment: MIC against the infecting strain (Table 4); format: cell-based; settings: Escherichia coli
S.agalactiae 2798 [5] = experiment: CD50, protection of mice infected with a lethal inoculum; format: in vivo; settings: for ED50: read-out: Total CD50
Text: (§2) The following Table gives CD50 values obtained after infecting groups of mice with a lethal inoculum of various bacteria and treating the mice with the compounds quoted. The CD50 value then represents the amount of compound necessary to protect 50% of the animals.

E.coli 96 R- [6] = experiment: as above; format: in vivo; settings: for ED50: Escherichia coli, 96R, read-out: Total CD50
Text: as §2

S.aureus Smith [7] = experiment: as above; format: in vivo; settings: for ED50: Staphylococcus aureus, read-out: Total CD50
Text: as §2

[8] = Streptococcus agalactiae, 2798, po, S.agalactiae 2798, p.o.

Row | MIC S. pyogenes CN 10 (S.pyogenes CN 10) [µg/mL] | MIC E. coli NCTC 10418 (E.coli NCTC 10418) [µg/mL] | SMILES | concentration at 0.25 h [1] [ng/mL] | concentration at 0.5 h [1] [ng/mL] | concentration at 1 h [1] [ng/mL] | concentration at 2 h [1] [ng/mL] | concentration at 4 h [1] [ng/mL] | concentration at 6 h [1] [ng/mL] | AUC [1] [ng·h/mL] | further results
1 |  |  | CC1(C)S[C@@H]2[C@H](NC(=O)[C@H](N)c3ccc(O)cc3)C(=O)N2[C@H]1C(=O)O [Amoxycillin, reference compound] | 4800 | 9700 | 12600 | 6700 | 1100 | 300 | 26200 | 
2 | 0.03 (≈ 0.1 µM) | 8 (≈ 26.7 µM) | C=C[C@@H](N)C(=O)N[C@@H]1C(=O)N2[C@@H]1SC(C)(C)[C@@H]2C(=O)O [Example 1, 6β-(D-2-Aminobut-3-enamido)penicillanic acid] | 4000 | 14700 | 32700 | 15700 | 2400 | 800 | 59700 | 
3 | < 0.03 | 8 (≈ 21.3 µM) | C=C(c1ccccc1)[C@@H](N)C(=O)N[C@@H]1C(=O)N2[C@@H]1SC(C)(C)[C@@H]2C(=O)O [Example 4 (D-stereoisomer), 6β-(D-2-amino-3-phenylbut-3-enamido)penicillanic acid] |  |  |  |  |  |  |  | 
4 | 0.25 (≈ 0.677 µM) | 32 (≈ 86.6 µM) | C=C(C)[C@@H](N)C(=O)N[C@@H]1C(=O)N2C(C(=O)O)=C(COC(C)=O)CS[C@H]12 [Example 7, 7,β-(D-2-Amino-3-methylbut-3-enamido)cephalosporanic acid] |  |  |  |  |  |  |  | 
5 | < 0.03 | 2 (≈ 6.11 µM) | C=C(CC)[C@@H](N)C(=O)N[C@@H]1C(=O)N2[C@@H]1SC(C)(C)[C@@H]2C(=O)O [Example 9 (D-stereoisomer), 6,β-(D-2-amino-3-ethylbut-3-enamido)penicillanic acid] |  |  |  |  |  |  |  | 
6 | < 0.06 | 2 (≈ 6.11 µM) | C/C=C(\C)[C@@H](N)C(=O)N[C@@H]1C(=O)N2[C@@H]1SC(C)(C)[C@@H]2C(=O)O [Example 10 (D-stereoisomer), 6β-(D-2-amino-3-methylpent-3(E)-enamido)penicillanic acid] |  |  |  |  |  |  |  | 
7 | < 0.06 | 8 (≈ 25.5 µM) | C/C=C/[C@@H](N)C(=O)N[C@@H]1C(=O)N2[C@@H]1SC(C)(C)[C@@H]2C(=O)O [Example 11 (D-stereoisomer), 6β-(D-2-Amino-pent-3(E)-enamido)penicillanic acid] |  |  |  |  |  |  |  | 
8 | 0.06 (≈ 0.177 µM) | 2 (≈ 5.89 µM) | C=C/C=C(\C)[C@@H](N)C(=O)N[C@@H]1C(=O)N2[C@@H]1SC(C)(C)[C@@H]2C(=O)O [Example 12 (D-stereoisomer), 6β-(D-2-amino-3-methylhex-3(E), 5-dienamido)penicillanic acid] |  |  |  |  |  |  |  | 

Row | SMILES | MIC S. pyogenes CN 10 (S.pyogenes CN 10) [µg/mL] | MIC E. coli NCTC 10418 (E.coli NCTC 10418) [µg/mL] | concentration at 0.25 h [1] [ng/mL] | concentration at 0.5 h [1] [ng/mL] | concentration at 1 h [1] [ng/mL] | concentration at 2 h [1] [ng/mL] | concentration at 4 h [1] [ng/mL] | concentration at 6 h [1] [ng/mL] | AUC [1] [ng·h/mL] | further results
9 | CC1(C)S[C@@H]2[C@H](NC(=O)[C@H](N)C=C(Cl)Cl)C(=O)N2[C@H]1C(=O)O [Example 5 (D-stereoisomer), 6β-(D-2-amino-4,4-dichlorobut-3-enamido)penicillanic acid] | < 0.03 | 2 (≈ 5.43 µM) | 20700 | 28800 | 24300 | 16800 | 2400 | 1400 | 63000 | MIC (S.aureus Smith [2]): 0.06 µg/mL (≈ 0.163 µM); MIC (S.agalactiae 2798 [3]): 0.06 µg/mL (≈ 0.163 µM); MIC (E.coli 96 R- [4]): 2 µg/mL (≈ 5.43 µM); Total CD50 (S.agalactiae 2798 [5]; S.agalactiae 2798, p.o.): 0.6 mg/kg; ED50 (S.agalactiae 2798 [5]; [8]): 0.9 mg/kg; ED50 (E.coli 96 R- [6]; po): 40 mg/kg; ED50 (E.coli 96 R- [6]; sc): 22 mg/kg; ED50 (S.aureus Smith [7]; sc): 0.08 mg/kg; Total CD50 (S.aureus Smith [7]; s.c.): 0.09 mg/kg
10 | C=C(C)[C@@H](N)C(=O)N[C@@H]1C(=O)N2[C@@H]1SC(C)(C)[C@@H]2C(=O)O [Example 6, 6,β-(D-2-Amino-3-methylbut-3-enamido)penicillanic-acid] | < 0.03 | 2 (≈ 6.38 µM) | 8700 | 16400 | 20000 | 13000 | 2200 | 900 | 46500 | MIC (S.aureus Smith [2]): 0.12 µg/mL (≈ 0.383 µM); MIC (S.agalactiae 2798 [3]): 0.25 µg/mL (≈ 0.798 µM); MIC (E.coli 96 R- [4]): 4 µg/mL (≈ 12.8 µM); Total CD50 (S.agalactiae 2798 [5]; S.agalactiae 2798, p.o.): 3.8 mg/kg; Total CD50 (S.agalactiae 2798 [5]; S.agalactiae 2798, s.c.): 1.1 mg/kg; ED50 (S.agalactiae 2798 [5]; [8]): 3.6 mg/kg; ED50 (S.agalactiae 2798 [5]; Streptococcus agalactiae, 2798, sc, S.agalactiae 2798, s.c.): 1.5 mg/kg; ED50 (E.coli 96 R- [6]; po): 32 mg/kg; Total CD50 (E.coli 96 R- [6]; p.o.): 40 mg/kg; ED50 (S.aureus Smith [7]; po): 0.08 mg/kg; ED50 (S.aureus Smith [7]; sc): 0.15 mg/kg; Total CD50 (S.aureus Smith [7]; p.o.): 0.10 mg/kg
11 | C=C(C)[C@@H](N)C(=O)N[C@@H]1C(=O)N2C(C(=O)O)=C(C)CS[C@H]12 [Example 8, 7,β-[D-2-Amino-3-methylbut-3-enamido]-3-desacetoxy cephalosporanic acid] | 2 (≈ 6.42 µM) |  |  |  |  |  |  |  |  | 
